# From patent US20200087248A1, “Fluoroallylamine Derivative And Use Thereof” (SICHUAN KELUN-BIOTECH BIOPHARMACEUTICAL CO., LTD., priority 2017, published 2020)
# Where a name gives a salt, the structure may show the parent alone.
# Tests used:
# hERG = target: T1, hERG (Homo sapiens, UniProt Q12809); test: hERG fluorescence polarization inhibition experiment; conditions: human, probe tracer having high affinity to hERG (kit tracer), hERG cell membrane, 25° C. 2 hours, read-out: hERG (IC50 range, competitive binding vs tracer)
# T1 construct: purchased ThermoFisher; host or cells: hERG cell membrane supplied with the kit
# T1 sequence (Q12809 whole entry): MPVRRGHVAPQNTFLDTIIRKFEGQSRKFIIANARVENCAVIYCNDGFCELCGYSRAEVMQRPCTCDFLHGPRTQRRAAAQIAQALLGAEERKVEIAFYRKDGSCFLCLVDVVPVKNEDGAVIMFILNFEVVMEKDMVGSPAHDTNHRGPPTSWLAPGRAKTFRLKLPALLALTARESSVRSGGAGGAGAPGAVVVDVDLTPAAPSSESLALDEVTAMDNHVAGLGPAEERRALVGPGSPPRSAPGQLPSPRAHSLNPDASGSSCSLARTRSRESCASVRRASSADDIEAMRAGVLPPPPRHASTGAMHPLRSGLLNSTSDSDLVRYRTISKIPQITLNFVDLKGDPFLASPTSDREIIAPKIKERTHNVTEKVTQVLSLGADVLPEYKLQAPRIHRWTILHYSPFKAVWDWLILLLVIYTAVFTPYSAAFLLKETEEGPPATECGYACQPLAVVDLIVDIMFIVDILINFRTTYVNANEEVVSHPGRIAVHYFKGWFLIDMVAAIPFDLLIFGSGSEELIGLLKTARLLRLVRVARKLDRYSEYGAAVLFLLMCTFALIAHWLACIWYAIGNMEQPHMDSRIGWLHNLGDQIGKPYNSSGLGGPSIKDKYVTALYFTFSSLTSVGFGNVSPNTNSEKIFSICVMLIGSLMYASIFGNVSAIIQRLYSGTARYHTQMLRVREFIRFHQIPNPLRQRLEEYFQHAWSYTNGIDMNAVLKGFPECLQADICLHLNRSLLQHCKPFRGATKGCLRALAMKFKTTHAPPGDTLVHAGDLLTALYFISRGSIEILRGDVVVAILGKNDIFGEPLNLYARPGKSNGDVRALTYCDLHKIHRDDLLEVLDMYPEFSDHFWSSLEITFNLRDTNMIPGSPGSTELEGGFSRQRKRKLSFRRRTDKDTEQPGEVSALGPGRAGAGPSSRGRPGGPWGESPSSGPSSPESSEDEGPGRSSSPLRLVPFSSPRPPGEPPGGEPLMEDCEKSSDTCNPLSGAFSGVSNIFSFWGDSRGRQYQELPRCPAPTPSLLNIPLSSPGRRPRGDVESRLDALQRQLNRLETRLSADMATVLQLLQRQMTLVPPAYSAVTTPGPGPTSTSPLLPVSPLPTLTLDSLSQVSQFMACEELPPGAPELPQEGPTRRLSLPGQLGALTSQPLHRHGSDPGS
# Procedure: hERG (Ether-a-go-go-related Gene Potassium Channel) Inhibition Experiment
# Reagent: Predictor™ hERG Fluorescence Polarization Assay Kit, Manufacturer: ThermoFisher
# The above test kit was used to evaluate the potential of the compound for inducing heart QT prolongation. According to the method as indicated in the specification of the test kit, the test compound, the positive control (E4031) and negative control (Experimental buffer solution) in the kit were added to a microwell plate containing hERG cell membrane, and then a tracer having high affinity to hERG was added. The microwell plate was then incubated at 25° C. for 2 hours, a BMG PHAREStar polyfunctional enzyme marker was used to test the variations in the fluorescent polarization value. By calculating the percent inhibition rates (%) at different concentrations, the range of the half inhibition concentration (IC50) was determined:
# Percent inhibition rate (%)=(1-(mP of the test compound-mP of 30 μM E4031)/(mP of experimental buffer solution-mP of 30 μM E4031))*100.
# MAO-A = target: T2, MAO-A (Homo sapiens, UniProt P21397); test: Inhibition of the enzymatic activity of MAO-A; type: biochemical; conditions: range of IC50 from inhibition rates at 100 μM and 10 μM; read-out: IC50, inhibition against the enzymatic activity of MAO-A
# T2 construct: purchased Sigma Aldrich
# T2 sequence (P21397 1-527): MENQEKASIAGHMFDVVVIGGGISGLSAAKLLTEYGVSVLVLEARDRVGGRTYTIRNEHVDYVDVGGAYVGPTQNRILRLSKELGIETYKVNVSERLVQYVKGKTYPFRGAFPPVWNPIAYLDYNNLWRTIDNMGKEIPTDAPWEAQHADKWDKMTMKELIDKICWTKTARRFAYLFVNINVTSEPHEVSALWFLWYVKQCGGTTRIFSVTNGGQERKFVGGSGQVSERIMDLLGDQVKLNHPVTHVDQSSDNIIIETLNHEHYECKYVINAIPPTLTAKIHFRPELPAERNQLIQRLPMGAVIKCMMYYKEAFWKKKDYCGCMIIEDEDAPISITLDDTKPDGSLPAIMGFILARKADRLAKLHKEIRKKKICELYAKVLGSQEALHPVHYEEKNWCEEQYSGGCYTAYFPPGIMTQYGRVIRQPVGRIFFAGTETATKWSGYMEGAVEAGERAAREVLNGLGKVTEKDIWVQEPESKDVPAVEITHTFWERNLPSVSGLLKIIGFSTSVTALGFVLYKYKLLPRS
# Procedure: Inhibition Experiment Against the Enzymatic Activity of MAO-A (Monoamine Oxidase Type A)
# (§1) 1. Test kit: Amplex® Red Monoamine Oxidase Assay, Manufacturer: ThermoFisher
# 2. Reaction Buffer Solution: 50 mM PBS, pH 7.4
# Protein: MAO-A, manufacturer: Sigma Aldrich
# According to the method as described in the specification of the kit, MAO-A protein (15 μg/ml) and different concentrations of the test compound were pre-incubated at room temperature for 30 minutes, and then 200 μM p-tyramine hydrochloride, 1 U/mL HRP and 200 µM Amplex Red reagent were added to start the reaction. In kinetic mode, fluorescence signals were measured at Ex/Em=540/590 nm. The inhibition rate of each concentration group was calculated, wherein the ratio of fluorescence signal to reaction time ratio is the reaction rate, the vehicle group (DMSO) is the negative control, and the reaction buffer solution group (without enzymes and the compounds) is the blank control.
# Percent inhibition rate (%)=(1-(reaction rate of each compound concentration group−reaction rate of the blank group)/(reaction rate of vehicle group−reaction rate of the blank group))*100.
# According to the above method, the inhibition of the compound against the enzymatic activity of MAO-A was measured, and the range of IC50 was obtained according to the inhibition rates at 100 μM and 10 μM.
# DAO = target: T3, DAO (Homo sapiens, UniProt P19801); test: Inhibition of the enzymatic activity of DAO; type: biochemical; conditions: DAO 15 μg/ml, histamine substrate; read-out: IC50, inhibition against the enzymatic activity of DAO
# T3 construct: purchased R&D Systems
# T3 sequence (P19801 20-751): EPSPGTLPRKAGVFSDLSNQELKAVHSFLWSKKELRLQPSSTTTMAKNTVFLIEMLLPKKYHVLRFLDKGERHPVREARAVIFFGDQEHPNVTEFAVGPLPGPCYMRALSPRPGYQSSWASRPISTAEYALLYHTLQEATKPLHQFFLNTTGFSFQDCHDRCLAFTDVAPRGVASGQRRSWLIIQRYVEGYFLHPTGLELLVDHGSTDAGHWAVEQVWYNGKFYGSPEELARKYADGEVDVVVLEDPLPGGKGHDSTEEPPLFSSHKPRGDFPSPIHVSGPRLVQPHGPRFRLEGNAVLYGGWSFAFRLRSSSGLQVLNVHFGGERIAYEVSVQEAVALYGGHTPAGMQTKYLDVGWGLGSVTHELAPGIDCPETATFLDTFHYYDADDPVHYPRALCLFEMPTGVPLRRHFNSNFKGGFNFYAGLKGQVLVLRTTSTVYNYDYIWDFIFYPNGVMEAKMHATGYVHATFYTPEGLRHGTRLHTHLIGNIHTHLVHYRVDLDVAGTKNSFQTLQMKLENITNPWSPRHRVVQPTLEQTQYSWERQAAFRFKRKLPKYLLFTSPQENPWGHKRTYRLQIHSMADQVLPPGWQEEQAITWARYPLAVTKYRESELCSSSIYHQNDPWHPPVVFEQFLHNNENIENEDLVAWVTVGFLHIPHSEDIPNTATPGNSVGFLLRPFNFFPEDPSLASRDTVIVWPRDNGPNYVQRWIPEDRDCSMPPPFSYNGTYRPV
# Procedure: Inhibition Experiment Against the Enzymatic Activity of DAO (Diamine Oxidase)
# as §1
# Protein: DAO, manufacturer: R&D Systems
# DAO protein (15 μg/ml) and different concentrations of the test compound were pre-incubated at room temperature for 20 minutes, and then 100 μM Histamine-dihydrochloride, 1 U/mL HRP and 200 μM Amplex Red reagent were added to start the reaction. The inhibition rate of each concentration groups were calculated according to the experimental method of MAO-A.
# VAP-1 = target: T4, VAP-1 (Homo sapiens, UniProt Q16853); test: Inhibition of the enzymatic activity of VAP-1 in vitro (Amplex Red); type: biochemical; conditions: VAP-1 protein about 20 nM, 10 min pre-incubation, benzylamine substrate; read-out: IC50, inhibition against the enzymatic activity of VAP-1
# T4 construct: purchased R&D Systems
# T4 sequence (Q16853 1-763): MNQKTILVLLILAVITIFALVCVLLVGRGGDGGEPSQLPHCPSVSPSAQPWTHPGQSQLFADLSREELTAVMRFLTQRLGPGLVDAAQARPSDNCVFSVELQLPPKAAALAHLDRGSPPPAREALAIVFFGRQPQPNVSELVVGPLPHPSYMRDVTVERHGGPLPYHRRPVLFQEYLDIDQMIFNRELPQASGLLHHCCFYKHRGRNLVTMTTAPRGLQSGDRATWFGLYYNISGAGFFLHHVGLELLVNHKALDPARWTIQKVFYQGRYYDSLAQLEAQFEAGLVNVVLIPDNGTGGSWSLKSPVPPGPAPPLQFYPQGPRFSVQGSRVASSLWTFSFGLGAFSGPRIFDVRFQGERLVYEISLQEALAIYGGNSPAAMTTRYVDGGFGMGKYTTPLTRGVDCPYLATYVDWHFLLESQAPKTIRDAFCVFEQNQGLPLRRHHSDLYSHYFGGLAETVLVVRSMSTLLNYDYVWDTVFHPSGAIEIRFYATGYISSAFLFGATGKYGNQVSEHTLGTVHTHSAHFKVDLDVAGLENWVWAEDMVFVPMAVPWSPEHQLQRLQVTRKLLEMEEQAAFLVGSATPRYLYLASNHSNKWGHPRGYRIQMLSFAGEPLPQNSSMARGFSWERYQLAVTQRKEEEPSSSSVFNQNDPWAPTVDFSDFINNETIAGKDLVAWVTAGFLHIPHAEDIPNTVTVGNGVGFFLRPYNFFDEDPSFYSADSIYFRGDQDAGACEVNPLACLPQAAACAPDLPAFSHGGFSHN
# Procedure: Inhibition Experiment Against the Enzymatic Activity of VAP-1(Vascular Adhesion Protein 1) in vitro
# Test kit: Amplex® Red Monoamine Oxidase Assay, Manufacturer: ThermoFisher
# Reaction buffer solution: 50 mM PBS, pH 7.4
# Enzyme: VAP-1, Manufacturer: R&D Systems
# VAP-1 protein (about 20 nM) and different concentrations of the test compound were pre-incubated at room temperature for 10 minutes, followed by an addition of […] benzylamine hydrochloride, 1 U/mL HRP and 200 μM Amplex Red reagent according to the specification of the test kit to start the reaction. The reaction plate was placed in the enzyme marker, and in kinetic mode, fluorescence signals were measured at Ex/Em=540/590 nm. The relative inhibition activity of each concentration group was calculated, wherein the ratio (slope) of fluorescence signal to reaction time in the linear range is the reaction rate, the vehicle group (DMSO) is the negative control, and the reaction buffer solution group (without enzymes and the compounds) is the blank control. The half inhibition concentration (IC50) of the compound was calculated according to four-parameter model fitting curve.
# MAO-B = target: T5, MAO-B (Homo sapiens, UniProt P27338); test: Inhibition of the enzymatic activity of MAO-B; type: biochemical; conditions: range of IC50 from inhibition rates at 10 μM, 1 μM and 0.1 μM; read-out: IC50, inhibition against the enzymatic activity of MAO-B
# T5 construct: purchased Sigma Aldrich
# T5 sequence (P27338 1-520): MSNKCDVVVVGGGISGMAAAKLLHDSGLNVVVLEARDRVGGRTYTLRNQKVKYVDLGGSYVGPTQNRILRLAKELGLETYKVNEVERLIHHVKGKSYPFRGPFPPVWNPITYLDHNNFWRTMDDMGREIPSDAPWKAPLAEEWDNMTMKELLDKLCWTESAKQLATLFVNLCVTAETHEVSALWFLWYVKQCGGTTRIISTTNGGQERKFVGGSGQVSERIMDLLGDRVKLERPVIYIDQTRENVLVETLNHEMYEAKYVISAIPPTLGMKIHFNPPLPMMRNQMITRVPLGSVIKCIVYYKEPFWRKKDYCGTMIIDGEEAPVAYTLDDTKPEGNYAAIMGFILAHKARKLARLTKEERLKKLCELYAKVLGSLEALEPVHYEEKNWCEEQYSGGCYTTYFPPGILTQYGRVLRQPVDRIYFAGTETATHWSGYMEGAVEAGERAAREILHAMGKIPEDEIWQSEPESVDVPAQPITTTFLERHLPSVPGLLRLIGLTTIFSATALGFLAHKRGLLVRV
# Procedure: Inhibition Experiment Against the Enzymatic Activity of MAO-B (Monoamine Oxidase Type B)
# as §1
# Protein: MAO-B, manufacturer: Sigma Aldrich
# According to the method as described in the specification of the test kit, MAO-B protein (5 μg/ml) and different concentrations of the test compound were pre-incubated at room temperature for 10 minutes, and then 150 μM benzylamine hydrochloride, 1 U/mL HRP and 200 μM Amplex Red reagent were added to start the reaction. The relative inhibition rate of each concentration group were calculated according to the experimental method of MAO-A.
# According to the above method, the inhibition of the compound against the activity of the MAO-B was measured, and the range of IC50 was obtained according to the inhibition rates at 10 μM, 1 μM and 0.1 μM.
Compound,IC50 (MAO-A) [nM],IC50 (MAO-B) [nM],IC50 at 2 h (hERG) [nM],IC50 (DAO) [nM],IC50 (VAP-1) [nM]
"(Z)-6-((2-(methylamino)-3-fluoroallyl)oxy)-2-methyl-3,4-dihydroisoquinolin-1(2H)-one trifluoroacetate [TM66-Z]",–,> 10000,–,–,1.6 ± 0.2
"NC/C(=C\F)COc1ccc(C(=O)Nc2ccc3c(c2)OCCO3)cc1 [TM114-E, (E)-4-((2-aminomethyl-3-fluoroallyl)oxy)-N-(2,3-dihydrobenzo[b][1,4]dioxa-6-yl)benzamide trifluoroacetate]",> 10000,–,–,–,1.1 ± 0.2
"NC/C(=C/F)COc1ccc(C(=O)NC2CCOCC2)cc1 [TM76-Z, (Z)-N-(tetrahydro-2H-pyran-4-yl)-4-((2-aminomethyl-3-fluoroallyl)oxy)-benzamide trifluoroacetate]",> 100000,> 100,–,–,1.8 ± 0.2
"(Z)-6-((2-(methylamino)-3-fluoroallyl)oxy)-3,3-dimethyl-3,4-dihydroisoquinolin-1(2H)-one trifluoroacetate [TM38-Z]",–,> 10000,–,> 100,2.9 ± 0.3
"NC/C(=C/F)COc1ccc(C(=O)Nc2ccc3c(c2)OCCO3)cc1 [TM114-Z, (Z)-4-((2-aminomethyl-3-fluoroallyl)oxy)-N-(2,3-dihydrobenzo[b][1,4]dioxa-6-yl)benzamide trifluoroacetate]",> 10000,–,–,–,0.8 ± 0.1

# Further lines, with some results ahead:
IC50 (MAO-A) [nM],IC50 (MAO-B) [nM],Compound,IC50 at 2 h (hERG) [nM],IC50 (DAO) [nM],IC50 (VAP-1) [nM]
> 100000,–,"NC/C(=C/F)COc1ccc2c(c1)CNC2=O [TM77-Z, (Z)-5-((2-aminomethyl-3-fluoroallyl)oxy)isoindol-1-one trifluoroacetate]",> 10000,–,–
–,> 10000,"NC/C(=C/F)COc1ccc2c(c1)C(=O)CC2 [TM7-Z, (Z)-6-((2-aminomethyl-3-fluoroallyl)oxy)-2,3-dihydro-1-indenone trifluoroacetate]",–,> 100,3.8 ± 0.4
> 100000,> 100,"NC/C(=C\F)COc1ccc(C(=O)NCc2ccccn2)cc1 [TM112-E, (E)-4-((2-aminomethyl-3-fluoroallyl)oxy)-N-(pyridin-2-ylmethyl)benzamide trifluoroacetate]",–,–,3.2 ± 0.4
